Series [1] relates to 3T3-L1 adipocytes. Briefly: Free Fatty Acid Levels in 3T3-L1 Adipocytes. In kind it is cell-based, mouse. The note with it: for Free Fatty Acid Levels Expressed as a Percent Isoproterenol Control, Percent of Control Value: peptides at 25 μM, 20-22 hours then isoproterenol (1 nM) 3 hours. Here is the method:
Following 12-15 days' differentiation, test peptides were added to a final concentration of 25 μM and incubated for 20-22 hours in Adipocyte Maintenance Medium. After 20-22 hours, isoproterenol (1 nM) was added to all wells except untreated controls and test peptides were replenished. Cells were incubated for a further 3 hours in Assay Buffer (Zen-Bio). Free fatty acid concentrations in the media were determined using a Free Fatty Acid Assay Kit (Zen-Bio) according to the manufacturer's instructions using a plate reader (540 nm). Absorbance values were corrected for untreated background and expressed relative to isoproterenol treated cells. Treatment with isoproterenol (1 nM) alone was used as the free fatty acid level stimulatory control. The relative standard deviation of the isoproterenol control was <10%. […] Free fatty acid levels for insulin (100 nM) treatment were <5% of the isoproterenol control value.

The test system of series [2] is MCF-7 cells. The following applies: human, 72 h, 10 µM. On the procedure: Peptides and reference compound staurosporine (Selleckchem) were dissolved with DMSO at 10 mM stock. CellTiter 96® AQueous One Solution Reagent (MTS assay reagent) was purchased from Promega (Madison, Wis.). MCF-7 human breast cancer cell line was purchased from American Type Culture Collection (Manassas, Va.). MCF-7 cells were grown in EMEM Medium supplemented with 10% FBS and 0.01 mg/ml human recombinant insulin. 100 μg/ml penicillin and 100 μg/ml streptomycin were added to the culture medium. Cells were incubated with test peptides at 10 μM at 37° C. in a humidified atmosphere of 5% C02 and 95% air for 72 hours. 5 μl of CellTiter 96® AQueous One Solution Reagent (MTS assay reagent) was added to each well and incubated at 37° C., 5% C02 for 5 hours. Absorbance at 492 nm was recorded by Envision 2104 Multilabel Reader. Treatment with DMSO alone was used as the cell viability activity control.

In series [3] the test system is MDA-MB-231 cells. Put plainly: Caspase 3/7 Activity in MDA-MB-231 Cells (Caspase-Glo 3/7). The class given is cell-based, human. The note with it: peptides at 10 μM, 18 hours, relative to DMSO control. Here is the method: The effect of the peptides on cell death/survival can be assessed using a caspase-3 assay. Peptides were dissolved with DMSO at 10 mM stock. […] Staurosporine (Selleckchem) was dissolved with DMSO at 1 mM stock. Caspase-Glo 3/7 Assay Reagent was purchased from Promega (Madison, Wis.). MDA-MB-231 human breast cancer cell line was purchased from American Type Culture Collection (Manassas, Va.). MDA-MB-231 cells were grown in DMEM Medium supplemented with 10% FBS. 100 μg/ml penicillin and 100 μg/ml streptomycin were added to the culture medium. Cultures were maintained at 37° C. in a humidified atmosphere of 5% C02 and 95% air. MDA-MB-231 cells were incubated with test peptides in duplicate at 10 μM at 37° C. in a humidified atmosphere of 5% C02 and 95% air for 18 hours. 25 μl of Caspase-Glo 3/7 Assay Reagent was added to each well and incubated at 37° C., 5% C02 for 1 hour. Luminescence for each sample well on the plate was measured by Envision 2104 Multilabel Reader (PerkinElmer, Santa Clara, Calif.). Activity was calculated relative to DMSO control.

For series [4], the system named is MDA-MB-231 cells. Put plainly: MTS Assay in MDA-MB-231 Cells (cell viability). In kind it is cell-based. The note with it: human, 72 h. On the procedure: Test compounds and reference compound staurosporine (Selleckchem) were all dissolved with DMSO at 10 mM stock. […] Activity was calculated relative to DMSO control. […] Cell viability was 3% of the DMSO control value for Staurosporine (10 uM).

The text below walks through data of patent US20220324911A1, “THERAPEUTIC PEPTIDES” (COHBAR, INC., priority 2019, published 2022).

Non-standard residues stand in square brackets, D forms with d. No end group written: not given here.

Turning to 3 (SLLIQCQSGHLR) [compound 3], the “Free Fatty Acid Levels Expressed as a Percent Isoproterenol Control, Percent of Control Value” in series [1] turned out to be 136%.
As to 4 (LLIQCQSGHLR) [compound 4], the “Free Fatty Acid Levels Expressed as a Percent Isoproterenol Control, Percent of Control Value” in series [1] came to 141%.
On the same count and under the same terms, the value for 5 ([dA]LIQCQSGHLR) [compound 5] was 159%.
Same read-out and setting: the result for 8 (TCWLIVDIGLLIVSSVF) [compound 8] reads 129%; that for 9 ([dA]TCWLIVDIGLLIVSSVF) [compound 9], 125%; that for “10 ([dA]TCWLIVDIGLLIVSS[dA]F) [compound 10]”, 138%.
Still for that read-out and setting: the value for 13 (TGWARGLISTGRV) [compound 13] was 87%; that for “14 (TGWARGLISTGR; not fully specified) [compound 14]” was 102%; that for 15 (TGW[dA]RGLISTGR) [compound 15] was 102%.
On to 18 (QTVPNKPTGPKLPNLH) [compound 18], for which, in series [1], the “Free Fatty Acid Levels Expressed as a Percent Isoproterenol Control, Percent of Control Value” is recorded as 109%.
On the same count and under the same terms, the result for 19 (QTVPNKPT[dA]PKLPNLH) [compound 19] reads 89%.
The same measure, in the same setting: the result for “20 (QTVPNKPT[dA]PKLPN[dA]) [compound 20]” reads 108%.
In the case of MQTVPNKPTGPKLPNLH [compound 17], the entries for the “MTS Assay cell viability, Percent of Control Activity” value in series [2] and in series [4] were 68% and 85%, respectively. For the same substance, the “Caspase 3/7 Activity, Percent of Control Activity” value in series [3] was 65%. Also, the “Free Fatty Acid Levels Expressed as a Percent Isoproterenol Control, Percent of Control Value” in series [1] worked out at 112%.
On the same counts, the results for MSLLIQCQSGHLR [compound 2] are 59%, 90%, 92% and 162%.
For MTCWLIVDIGLLIVSSVF [compound 7] the same measures were 52%, 88%, 56% and 160%.
On the same counts, the results for MTGWARGLISTGRV [compound 12] are 62%, 89%, 73% and 107%.
In the case of insulin [reference compound], the “Free fatty acid levels, % of the isoproterenol control value” in series [1] (insulin 100 nM) is < 5%.
